A short description of data set [1]: Pharmacokinetics and subjective effects in human volunteers. Type of data set: in vivo. The following applies: standardized questionnaires. The procedure:
The compound from example 6 (N,N diisopropyltryptamine-4-glutarate) is administered to human volunteers by subcutaneous injection of a sterile solution (1 mg/ml) at a dosage of 0.1-0.6 mg/kg. Blood samples are taken at 5, 15, 30, 45, 60, 120, 240 and 480 min and 24 h. Samples are analyzed by LCMS for drug and prodrug. Subjective effects are measured using standardized questionnaires.
The compound from example 2 (4-hemisuccinate of 4-OH-DiPT) is administered to human volunteers by oral ingestion of a tablet containing 50 mg of the prodrug. Blood samples are taken at 5, 15, 30, 45, 60, 120, 240 and 480 min and 24 h. Samples are analyzed by LCMS for drug and prodrug. Subjective effects are measured using standardized questionnaires.

For another data set, the system named is rats. As to the kind of experiment: Head Twitch Response (HTR) / Wet Dog Shakes by visual observation. Type of data set: in vivo. The following applies: after injection of the compound from example 9, highest intensity at the Tmax of the PK profile. Here is the method:
In some cases, Head Twitch Response (HTR) or Wet Dog Shakes (WDS) were recorded by visual observation and counting of the relevant muscle twitches.

Another data set can be described thus: Solubility in water. Type of data set: physicochemical. The following applies: HCl salt solid. Here is the method:
The structure was confirmed by NMR. Purity was determined by HPLC (>97%). The solid was resuspended in […] HCl-dioxane to form the HCl salt which was filtered, washed with ether and dried. Yield (>95%, purity >95%; DSC endotherm 174C). The solid could be dissolved in water up to 50 mg/ml and lyophilized to form a white “cake”.

Data set [2] deals with human patient suffering depression. As to the kind of experiment: Use in treatment of a human patient suffering depression. Type of data set: in vivo. The settings on record: i.m. or s.c. injection (ca. 25 mg) or oral (ca. 50-200 mg). The procedure:
The compound of example 6 (N,N diisopropyltryptamine-4-glutarate) is administered by i.m. or s.c. injection (ca. 25 mg; 0.4-0.5 mg/kg) to a human patient suffering depression, or by oral administration (ca. 50-200 mg; 0.8-3.2 mg/kg) with tablets. In another example of use, the compound of example 6 (4-hemiglutarate of 4-OH-DiPT) is similarly administered. Prior to the dosing session, the patient is qualified for the experience by measurement of depression scores, screened for exclusions (e.g. history of psychoses, unfavorable heart condition, pregnancy) and finally, the patient is encouraged to formulate an intent for the dosing session. Dosing is performed in a quiet clinic setting with the patient resting comfortably in an inclined, but unrestrained, position to avoid falls. The patients' eyes are covered, and music is applied. The drug is administered. After 4 h, the patient reports no longer feeling the effects of the drug and is asked to sit up while under supervision. Feeling normal, the patient is allowed to stand (supervised) and feeling in control, is allowed to move around. One hour later, the patient is discharged. Later by 24 h, the patient returns to the clinic to meet with a psychotherapist to recount the session. The patient records a depression score via questionnaire and is again discharged. […]

Data set [3] can be described thus: Prodrug hydrolysis in mouse plasma at 37° C. Type of data set: in vitro ADME. The following applies: 1.0 ug/mL. The procedure:
(§1) Pooled mixed gender human plasma (2 ml), mouse plasma, rat plasma and dog plasma were equilibrated at 37° C. The compound of example 9 was added so as to achieve a concentration of 1.0 ug/mL. Aliquots (50 uL) of the mixture were withdrawn at timed intervals (0, 0.004, 0.5, 1, 2 and 4 hours) and quenched with 200 uL of methanol/acetonitrile (1:1). The samples were vortexed and stored at −80° C. until analysis. Assays were done in triplicate. Control samples were done in phosphate buffered saline (PBS, pH 7.4) and simulated gastric fluid (SGF, pH 2). Analysis of samples as performed by HPLC-MS to determine the amounts of prodrug and drug in each sample tested. Table 1 provides the mean concentrations of prodrug remaining at different time points of the experiment.

Data set [4] can be described thus: Prodrug hydrolysis in rat plasma at 37° C. Type of data set: in vitro ADME. The following applies: 1.0 ug/mL. The procedure: as §1
Data set [5] in a line: Prodrug hydrolysis in dog plasma at 37° C. Type of data set: in vitro ADME. The settings on record: 1.0 ug/mL. The procedure: as §1
Data set [6] can be described thus: Prodrug hydrolysis in pooled mixed gender human plasma at 37° C. The settings on record: 1.0 ug/mL. Type of data set: in vitro ADME. Here is the method: as §1
Data set [7] is described as follows: Control hydrolysis in simulated gastric fluid (SGF, pH 2). Type of data set: physicochemical. Here is the method: as §1
Data set [8] is described as follows: Control hydrolysis in phosphate buffered saline (PBS). The settings on record: PBS (pH 7). Type of data set: physicochemical. Here is the method: as §1
Data set [9] can be described thus: Pharmacokinetics in rats (i.v. and s.c. injection, LCMS of drug and prodrug). Type of data set: in vivo. The following applies: rodent, 1.4-2 mg/kg. Here is the method: The compound from example 9 was administered to rats by injection (intravenous and subcutaneous) with a sterile solution (2 mg/ml) at a rate of 1.4-2 mg/kg. Blood samples were taken at 15, 30, 45, 60, 120, 240 min and 360 min and analyzed by LCMS for drug and prodrug. PK profile for the prodrug and active species were obtained and relative bioavailability was determined for each of the routes of administration.
Pharmacokinetics of 1.34 mg/ml 4-HO-DiPT HCl administered by intravenous or subcutaneous injection were performed in parallel under identical conditions as above. […] Immediately obvious is the increased variability with the active species when administered s.c. and intravenous administrations.

Where a name gives a salt, the structure may show the parent alone.

`CC(C)N(CCc1c[nH]c2cccc(OC(=O)CCC(=O)O)c12)C(C)C` [Example 2, 4-hemisuccinate of 4-hydroxy-diisopropyltryptamine (4-OH-DiPT)]: in data set [1] (oral tablet 50 mg), the “Subjective effects (intensity of psychoactivity)” value is given as “correlates with blood levels”.
With `CC(C)N(CCc1c[nH]c2cccc(O)c12)C(C)C` [Example 4-HO-DIPT, 4-hydroxy-N,N-diisopropyltryptamine], in the data set with rats, the “Intensity of the HTR versus plasma concentration” value was “proportional to the plasma concentration”.
In the case of `CC(C)N(CCc1c[nH]c2cccc(OC(=O)CCCC(=O)O)c12)C(C)C` [Example 6, N,N diisopropyltryptamine-4-glutarate], in “Solubility in water”, the Solubility in water entry is recorded as “up to 50 mg/ml”. Besides, the “Subjective effects (intensity of psychoactivity)” value in data set [1] (subcutaneous injection, 0.1-0.6 mg/kg) is given as “correlates with blood levels”. The “Time after which the patient reports no longer feeling the effects of the drug” value in data set [2] is 4 h.
On to `CC(C)N(CCc1c[nH]c2cccc(OC(=O)CCCC(=O)O)c12)C(C)C` [Example 9, HCl salt of N,N diisopropyltryptamine-4-glutarate], for which the “Percentage of remaining prodrug” value came to 100% in data set [3] (time 0 h); 0% in data set [3] (time 0.004 h); 0% in data set [3] (time 0.5 h); 0% in [3] (time 1 h); 0% in [3] (time 2 h); 0% in [3] (time 4 h). In addition, the “Percentage of remaining prodrug” value is 100% in data set [4] (time 0 h); 0% in data set [4] (time 0.004 h); 0% in data set [4] (time 0.5 h); 0% in data set [4] (time 1 h); 0% in [4] (time 2 h); 0% in [4] (time 4 h). For the same molecule, the “Percentage of remaining prodrug” value turned out to be 100% in data set [5] (time 0 h); 100% in data set [5] (time 0.004 h); 87% in data set [5] (time 0.5 h); 79% in data set [5] (time 1 h); 64% in data set [5] (time 2 h); 39% in [5] (time 4 h). The “Percentage of remaining prodrug” value in [6] (time 0 h) came out at 100%; in data set [6] (time 0.004 h), 100%; in data set [6] (time 0.5 h), 3.0%; in data set [6] (time 1 h), 0.23%; in data set [6] (time 2 h), 0%; in [6] (time 4 h), 0%. In addition, the “Percentage of remaining prodrug” value was 100% in [7] (time 0 h); 100% in data set [7] (time 0.004 h); 100% in data set [7] (time 0.5 h); 100% in data set [7] (time 1 h); 101% in data set [7] (time 4 h); 100% in data set [8] (time 0 h). In data set [8] (time 4 h), the “Percentage of remaining prodrug” value turned out to be 93%. The “Prodrug in blood samples after injection” value in [9] is “prodrug was not observed”.

The record behind these values is patent US20250129023A1, “[…]” (Reunion Neuroscience, Inc., priority 2020, published 2025).
